From patent publication US10620222B2, “Electrified compositions for determining the risk of developing adolescent idiopathic scoliosis through the use of GI protein receptor” (CHU Sainte-Justine, priority 2008, dated 2020)
Where “and” joins values, the source holds several entries; their conditions need not be identical. Equal values may be shown once.

Columns and labels:
[1] = test system: receptors coupled to Gi proteins expressed on osteoblasts; experiment: Cellular Dielectric Spectroscopy (CDS, CELLKEY) response to Gi-coupled receptor ligands in osteoblasts from control and AIS subjects; type: cell-based, human; settings: for dZiec value: n1, n2 of Exper. 1-3
[2] = test system: Gi protein-mediated pathway in MG63 osteoblast cell line; type: cell-based; settings: 100 ng/mL PTX 16 h, stimulation with 10 μM ligand, 37° C., 5 min
Description: The ability of CDS to detect the relative part of the Gi protein-mediated pathway in melatonin signaling was determined by blocking this pathway with pertussis toxin (PTX). This toxin ADP-ribosylates the a subunit of the heterotrimeric Gi protein and thereby prevents its activity. The MG63 osteoblast cell line was serum-starved for 16 h in the absence or presence of 100 ng/mL of PTX to inhibit the αi subunit of Gi protein. […] Cellular responses were measured with CELLKEY™ label-free cellular analysis system as described in the Material and Methods section.

[3] = test system: melatonin signaling in PBMCs; experiment: CDS response to iodomelatonin in PBMCs from control and IS subjects; type: cell-based, human
From the text: Blood samples were obtained from patients and control groups and collected in blood collection tubes containing EDTA and then centrifuged on a Ficoll-Plaque (GE Healthcare, Mississauga, ON, Canada) solution to obtain PBMCs (containing principally lymphocytes). PBMC fractions were preserved frozen in FBS with 10% DMSO and kept in liquid nitrogen until thawed and assayed. PBMCs were harvested from stock tissue culture flask and washed three times with assay buffer. Cells were isolated from the heparinized peripheral by ficoll-Hypaque density gradient centrifugation, and cultured in RPMI 1640 medium supplemented with 10% FBS, 100 μg/mL streptomycin and 1% of phytohemagglutinin. Following 48 h of incubation at 37° C./CO2 cells were washed three times with assay buffer and seeded into the CELLKEY™ label-free cellular analysis system small 96-well plates. Typically, an average of 1×10^5 cells to 1.5×10^5 were added to each well and allowed to settle for 30 min at room temperature. […] After the cells settled, the cell plate was placed on the instrument and experiments were initiated in the manner described below after the acquisition of 5 min of baseline measurements. All experiments were conducted at 28° C.
The response induced by the various ligands to their receptors was measured by cellular dielectric spectroscopy (CDS) using the CELLKEY™ label-free cellular analysis technology. (MDS Sciex, San Francisco, Calif., USA). The CELLKEY™ label-free cellular analysis system integrates a proprietary impedance measurement system, custom 96-well microliter plate, onboard 96-well fluidics, and environment control and custom acquisition and analysis software in a full solution package (MDS Sciex) that is compatible with commercially available robotic platforms. Small voltage at 24 frequencies, from 1 KHz to 10 MHz, is applied to a monolayer of cells settled in a 96-well microplate containing electrodes at the bottom, and the resultant current is measured at an update rate of 2 s. […] Onboard fluid additions and exchanges are handled by 96-well head fluid delivery device with a range of 5-500 μL. In addition to the cell plate location, the CELLKEY™ label-free cellular analysis system includes two additional stations for 96- or 384-well compound plates. All aspects of assay set up, execution, and data acquisition and analysis are controlled by CELLKEY™ label-free cellular analysis software.
PBMCs were isolated from control subjects, IS subjects as described in Example 2 above.

[4] = osteoblasts of control subjects, 300 μM ligand, from FIGS. 11A-11F
[5] = PBMCs of control subjects, 300 μM, from FIG. 12A

COc1ccc2[nH]c(I)c(CCNC(C)=O)c2c1 [Iodomelatonin, 2-lodomelatonin]
CDS response, dependence on concentration ([1]; osteoblasts from both control and IS patients, FIGS. 4A-4C): concentration-dependent manner
dZiec value ([1]; osteoblasts of AIS#1020 (Group 3), 300 μM ligand): 69.57 and 66.57 and 85.25 and 97.25 and 83.71 and 74.11
dZiec value ([1]; osteoblasts of AIS#1198 (Group 3 in Table II), 300 μM ligand): 61.05 and 65.29 and 70.29 and 60.97 and 57.37
dZiec value ([1]; osteoblasts of AIS#1385 (Group 2), 300 μM ligand): 66.51 and 67.51 and 79.93 and 81.93 and 79.02 and 69.42
dZiec value ([1]; osteoblasts of AIS#1468 (Group 3), 300 μM ligand): 91.38 and 88.38 and 101.69 and 113.69 and 102.83 and 93.23
dZiec value ([1]; osteoblasts of AIS#1474 (Group 1), 300 μM ligand): 33.02 and 32.02 and 38.33 and 32.33 and 39.97 and 36.37
dZiec value ([1]; osteoblasts of AIS#1488 (Group 1), 300 μM ligand): 25.43 and 27.43 and 30.31 and 27.31 and 19.17 and 19.57
dZiec value ([1]; osteoblasts of AIS#1513 (Group 3), 300 μM ligand): 83.92 and 80.92 and 94.08 and 106.08 and 95.30 and 85.70
dZiec value ([1]; osteoblasts of AIS#1550 (Group 2), 300 μM ligand): 55.99 and 48.99 and 60.90 and 62.90 and 62.74 and 59.14
dZiec value ([1]; osteoblasts of control CTR#60, 300 μM ligand): 142.55/— and 139.55/— and 149.20/— and 161.20/— and 152.18/— and 142.58/—
dZiec value ([1]; osteoblasts of control CTR#61, 300 μM ligand): 130.88/— and 127.88/— and 138.31/— and 150.31/— and 140.90/— and 131.30/—
dZiec value ([1]; osteoblasts of control CTR#69, 300 μM ligand): 150.99/— and 147.99/— and 161.10/— and 173.10/— and 162.34/— and 152.74/—
Absolute dZiec, control value of max diff. (maximal control value) [1, 4]: 159
Absolute dZiec, control value of min diff. (minimal control value) [1, 4]: 120
Absolute dZiec, Group 1, max diff. (group value) ([1]; osteoblasts, AIS Group 1 value of max diff., 300 μM ligand, from FIGS. 11A-11F): 15
Absolute dZiec, Group 1, min diff. (group value) ([1]; osteoblasts, AIS Group 1 value of min diff., 300 μM ligand, from FIGS. 11A-11F): 35
Absolute dZiec, Group 2, max diff. (group value) ([1]; osteoblasts, AIS Group 2 value of max diff., 300 μM ligand, from FIGS. 11A-11F): 57
Absolute dZiec, Group 2, min diff. (group value) ([1]; osteoblasts, AIS Group 2 value of min diff., 300 μM ligand, from FIGS. 11A-11F): 84
Absolute dZiec, Group 3, max diff. (group value) ([1]; osteoblasts, AIS Group 3 value of max diff., 300 μM ligand, from FIGS. 11A-11F): 90
Absolute dZiec, Group 3, min diff. (group value) ([1]; osteoblasts, AIS Group 3 value of min diff., 300 μM ligand, from FIGS. 11A-11F): 101
magnitude of CDS response in IS osteoblasts vs control ([1]; osteoblasts, FIGS. 4A-4C): significantly lower
inhibition extent of the CDS response by PTX treatment [2]: ~90%
maximal magnitude of CDS response ([3]; PBMCs from IS patients, 300 μM): 110 ohms
minimum magnitude of CDS response ([3]; PBMCs from IS patients, 300 μM): 16 ohms
minimal magnitude of CDS response ([3]; PBMCs from healthy volunteers, 300 μM): 124 ohms
melatonin signaling response (CDS) ([3]; PBMCs from normal/healthy subjects, 300 μM): greater than 120 ohms
Absolute dZiec, control value of max diff. (maximal control value) [3, 5]: 225
Absolute dZiec, control value of min diff. (minimal control value) [3, 5]: 124
responsiveness of PBMCs from patients with IS compared to healthy volunteers ([3]; PBMCs, FIG. 12A, melatonin data not shown): less responsive
Absolute dZiec, Group 1, max diff. (group value) ([3]; PBMCs, Group 1 value of max diff., 300 μM, from FIG. 12A): 16
Absolute dZiec, Group 1, min diff. (group value) ([3]; PBMCs, Group 1 value of min diff., 300 μM, from FIG. 12A): 36
Absolute dZiec, Group 2, max diff. (group value) ([3]; PBMCs, Group 2 value of max diff., 300 μM, from FIG. 12A): 49
Absolute dZiec, Group 2, min diff. (group value) ([3]; PBMCs, Group 2 value of min diff., 300 μM, from FIG. 12A): 75
Absolute dZiec, Group 3, max diff. (group value) ([3]; PBMCs, Group 3 value of max diff., 300 μM, from FIG. 12A): 86
Absolute dZiec, Group 3, min diff. (group value) ([3]; PBMCs, Group 3 value of min diff., 300 μM, from FIG. 12A): 110
mean of CDS response ([3]; PBMCs, IS group 1, 300 μM): 27.86±4.18 ohms
mean of CDS response ([3]; PBMCs, IS group 2, 300 μM): 65.71±3.42 ohms
mean of CDS response ([3]; PBMCs, IS group 3, 300 μM): 97.94±1.36 ohms
mean of CDS response ([3]; PBMCs, control group, 300 μM): 155.17±3.91 ohms
